Test results taken from US20080242661A1, “Novel compounds useful for the treatment of degenerative & inflammatory diseases” (priority 2006, published 2008).
pIC50: −log10 of the molar value.

These compounds were tested against purified PDE1A enzyme (Homo sapiens, UniProt P54750) (assay: In vitro PDE1A assay, dose response (Biomol Cyclic Nucleotide Phosphodiesterase Assay Kit, colorimetric)). Settings: 100 μM cAMP, 45 min at 37° C., 8 points from 20 μM, duplicate.
Format: biochemical
Description: For the dose response and further screening, we used the Cyclic Nucleotide Phosphodiesterase Assay Kit from Biomol, a colorimetric, non-radioactive assay. The basis for the assay is the cleavage of cAMP by PDE1A. The 5′AMP is further cleaved into the nucleoside and phosphate by the enzyme 5′-nucleotidase (catnr KI-307). The phosphate released due to enzymatic cleavage is quantified using BIOMOL GREEN™ reagent (catnr AK-111) in a modified Malachite Green assay 1,2. A PDE1A inhibitor will result in a decrease of the signal.
For the enzymatic reaction a mix of 25 μL with purified PDE1A enzyme, 100 μM cAMP, 5′Nucleotidase and the compound is made in a clear 384-plate. The reaction buffer is Tris 20 mM pH 7.4, 4 μg/ml calmodulin, 3 mM MgCl2, 1.5 mM CaCl2, 0.2 mg/mL BSA and 0.001% Brij-35. After an incubation of 45 minutes at 37° C., the reaction is stopped by the addition of 50 μL BIOMOL GREEN™ reagent. After 30 minutes incubation at room temperature, the readout is performed on the Envision (absorption at 615 nm).
All compounds are tested in duplicate starting from 20 μM followed by a ⅓ serial dilution, 8 points (20 μM-6.67 μM-2.22 μM-740 nM-247 nM-82 nM-27 nM-9 nM) in a final concentration of 1% DMSO. As the positive dose response control compound Vardenafil is used. For the calculation of z′ and PIN values 10 μM Vardenafil is used as positive control (100% inhibition) and 1% DMSO as negative control (0% inhibition).
The following compounds have been or can be prepared according to the synthetic methods described above. For the purpose of Table 2 below, activity of each compound, which can be determined using the PDE1A assay method described in above, is expressed as follows: […]
Compound `CCCc1nn(C)c2c(=O)[nH]c(N(CCC(C)C)Cc3ccc(Cl)c(Cl)c3)nc12` [Example 45, 5-((3,4-dichlorobenzyl)(isopentyl)amino)-1-methyl-3-propyl-1H-pyrazolo[4,3-d]pyrimidin-7(6H)-one] has a pIC50 greater than 7.00. `CCCc1nn(C)c2c(=O)[nH]c(N(C)Cc3ccc(OCCN4CCOCC4)cc3)nc12` [Example 49, 1-methyl-5-(methyl(4-(2-morpholinoethoxy)benzyl)amino)-3-propyl-1H-pyrazolo[4,3-d]pyrimidin-7(6H)-one] was tested, and the pIC50 was 6.30 to 7.00. With `CCCc1nn(C)c2c(=O)[nH]c(N3CCc4cc(F)ccc4C3)nc12` [Example 34, 5-(6-fluoro-3,4-dihydroisoquinolin-2(1H)-yl)-1-methyl-3-propyl-1H-pyrazolo[4,3-d]pyrimidin-7(6H)-one] the pIC50 was 6.30 to 7.00. With `CCCc1nn(C)c2c(=O)[nH]c(N(C)CCc3ccccc3)nc12` [Example 22, 1-methyl-5-(methyl(phenethyl)amino)-3-propyl-1H-pyrazolo[4,3-d]pyrimidin-7(6H)-one] the pIC50 was 6.30 to 7.00. Work on `CCCC(C)CN(Cc1cccc(N2CCOCC2)c1)c1nc2c(C(C)(C)C)nn(C)c2c(=O)[nH]1` (centres unmarked) [Example 104, 3-tert-butyl-1-methyl-5-((2-methylpentyl)(3-morpholinobenzyl)amino)-1H-pyrazolo[4,3-d]pyrimidin-7(6H)-one] yielded a pIC50 greater than 7.00. `CCCc1nn(C)c2c(=O)[nH]c(N(C)Cc3ccc(C(F)(F)F)cc3)nc12` [Example 16, 1-methyl-5-(methyl(4-(trifluoromethyl)benzyl)amino)-3-propyl-1H-pyrazolo[4,3-d]pyrimidin-7(6H)-one] was tested, and the pIC50 was 6.30 to 7.00. Work on `Cn1nc(C(C)(C)C)c2nc(N(CCC(C)(C)C)Cc3cccc(N4CCOCC4)c3)[nH]c(=O)c21` [Example 103, 3-tert-butyl-5-((3,3-dimethylbutyl)(3-morpholinobenzyl)amino)-1-methyl-1H-pyrazolo[4,3-d]pyrimidin-7(6H)-one] yielded a pIC50 greater than 7.00. `CCCc1nn(C)c2c(=O)[nH]c(N(CCC)CCc3ccc(Cl)cc3)nc12` [Example 75, 5-((4-chlorophenethyl)(propyl)amino)-1-methyl-3-propyl-1H-pyrazolo[4,3-d]pyrimidin-7(6H)-one] showed a pIC50 of 6.30 to 7.00. `CC(C)CN(Cc1cccc(-n2cccn2)c1)c1nc2c(C(C)(C)C)nn(C)c2c(=O)[nH]1` [Example 93] gave a pIC50 greater than 7.00. With `CCCc1nn(C)c2c(=O)[nH]c(N(C)Cc3cc4cccnc4s3)nc12` [Example 36, 1-methyl-5-(methyl(thieno[2,3-b]pyridin-2-ylmethyl)amino)-3-propyl-1H-pyrazolo[4,3-d]pyrimidin-7(6H)-one] the pIC50 was 6.30 to 7.00. For `CCCc1nn(C)c2c(=O)[nH]c(NCc3ccccc3OCCN3CCOCC3)nc12` [Example 50, 1-methyl-5-(2-(2-morpholinoethoxy)benzylamino)-3-propyl-1H-pyrazolo[4,3-d]pyrimidin-7(6H)-one], the pIC50 was less than 6.30. With `CCCc1nn(C)c2c(=O)[nH]c(NCc3ccc(F)cc3)nc12` [Example 23, 5-(4-fluorobenzylamino)-1-methyl-3-propyl-1H-pyrazolo[4,3-d]pyrimidin-7(6H)-one] the pIC50 was less than 6.30. With `CN1CCN(c2cccc(CNc3nc4c(C(C)(C)C)nn(C)c4c(=O)[nH]3)c2)CC1` [Example 92, 3-tert-butyl-1-methyl-5-(3-(4-methylpiperazin-1-yl)benzylamino)-1H-pyrazolo[4,3-d]pyrimidin-7(6H)-one] the pIC50 was greater than 7.00. `CCCc1nn(C)c2c(=O)[nH]c(NCc3cccc(N4CCCCC4)c3)nc12` [Example 11, 1-methyl-5-(3-(piperidin-1-yl)benzylamino)-3-propyl-1H-pyrazolo[4,3-d]pyrimidin-7(6H)-one] was tested, and the pIC50 was 6.30 to 7.00. In the case of `CN(Cc1ccc(Cl)c(Cl)c1)c1nc2c(C3CCCC3)nn(C)c2c(=O)[nH]1` [Example 77, 3-cyclopentyl-5-((3,4-dichlorobenzyl)(methyl)amino)-1-methyl-1H-pyrazolo[4,3-d]pyrimidin-7(6H)-one], the pIC50 was greater than 7.00. For `CN(Cc1ccc(Cl)cc1)c1nc2c(C3CCCC3)nn(C)c2c(=O)[nH]1` [Example 71, 5-((4-chlorobenzyl)(methyl)amino)-3-cyclopentyl-1-methyl-1H-pyrazolo[4,3-d]pyrimidin-7(6H)-one], the pIC50 was greater than 7.00. In the case of `CCCc1nn(C)c2c(=O)[nH]c(N(Cc3ccccc3)C(C)C)nc12` [Example 28, 5-(benzyl(isopropyl)amino)-1-methyl-3-propyl-1H-pyrazolo[4,3-d]pyrimidin-7(6H)-one], the pIC50 was 6.30 to 7.00. In the case of `CCCN(CCC)c1nc2c(C3CCCC3)nn(C)c2c(=O)[nH]1` [Example 78, 3-cyclopentyl-5-(dipropylamino)-1-methyl-1H-pyrazolo[4,3-d]pyrimidin-7(6H)-one], the pIC50 was greater than 7.00. In the case of `CCCc1nn(C)c2c(=O)[nH]c(N(C)Cc3cc(C)n(C)n3)nc12` [Example 14, 5-(((1,5-dimethyl-1H-pyrazol-3-yl)methyl)(methyl)amino)-1-methyl-3-propyl-1H-pyrazolo[4,3-d]pyrimidin-7(6H)-one], the pIC50 was 6.30 to 7.00. `CCCc1nn(C)c2c(=O)[nH]c(N(CC(C)C)CC(C)C)nc12` [Example 29, 5-(diisobutylamino)-1-methyl-3-propyl-1H-pyrazolo[4,3-d]pyrimidin-7(6H)-one] gave a pIC50 of 6.30 to 7.00. Work on `CCCc1nn(C)c2c(=O)[nH]c(N(Cc3cccc(-n4cccn4)c3)CC(C)(C)C)nc12` [Example 119] yielded a pIC50 greater than 7.00. `CCCc1nn(C)c2c(=O)[nH]c(NCc3ccn(-c4ccccc4)n3)nc12` [Example 57, 1-methyl-5-((1-phenyl-1H-pyrazol-3-yl)methylamino)-3-propyl-1H-pyrazolo[4,3-d]pyrimidin-7(6H)-one] showed a pIC50 of 6.30 to 7.00. `CCCc1nn(C)c2c(=O)[nH]c(N(C)Cc3cccc(N4CCOCC4)c3)nc12` [Example 10, 1-methyl-5-(methyl(3-morpholinobenzyl)amino)-3-propyl-1H-pyrazolo[4,3-d]pyrimidin-7(6H)-one] showed a pIC50 of 6.30 to 7.00. `CCCc1nn(C)c2c(=O)[nH]c(NCc3sc(-c4ccccc4)nc3C)nc12` [Example 72, 1-methyl-5-((4-methyl-2-phenylthiazol-5-yl)methylamino)-3-propyl-1H-pyrazolo[4,3-d]pyrimidin-7(6H)-one] showed a pIC50 greater than 7.00. In the case of `CN(Cc1ccc(F)cc1)c1nc2c(C3CCCC3)nn(C)c2c(=O)[nH]1` [Example 70, 3-cyclopentyl-5-((4-fluorobenzyl)(methyl)amino)-1-methyl-1H-pyrazolo[4,3-d]pyrimidin-7(6H)-one], the pIC50 was greater than 7.00. Work on `CN(Cc1cc(-c2ccccc2)nn1C)c1nc2c(C(C)(C)C)nn(C)c2c(=O)[nH]1` [Example 81, 3-tert-butyl-1-methyl-5-(methyl((1-methyl-3-phenyl-1H-pyrazol-5-yl)methyl)amino)-1H-pyrazolo[4,3-d]pyrimidin-7(6H)-one] yielded a pIC50 greater than 7.00. Compound `CCCc1nn(C)c2c(=O)[nH]c(N(C)Cc3cc(-c4ccccc4)on3)nc12` [Example 25, 1-methyl-5-(methyl((5-phenylisoxazol-3-yl)methyl)amino)-3-propyl-1H-pyrazolo[4,3-d]pyrimidin-7(6H)-one] has a pIC50 greater than 7.00. With `CC(C)CN(Cc1cccc(-n2cncn2)c1)c1nc2c(C(C)(C)C)nn(C)c2c(=O)[nH]1` [Example 95] the pIC50 was greater than 7.00. `CCCc1nn(C)c2c(=O)[nH]c(N(C)Cc3ccc(-c4cncnc4)cc3)nc12` [Example 13, 1-methyl-5-(methyl(4-(pyrimidin-5-yl)benzyl)amino)-3-propyl-1H-pyrazolo[4,3-d]pyrimidin-7(6H)-one] showed a pIC50 of 6.30 to 7.00. Work on `CCCc1nn(C)c2c(=O)[nH]c(N(C)Cc3cccc4ccccc34)nc12` [Example 58, 1-methyl-5-(methyl(naphthalen-1-ylmethyl)amino)-3-propyl-1H-pyrazolo[4,3-d]pyrimidin-7(6H)-one] yielded a pIC50 of less than 6.30. For `CCCc1nn(C)c2c(=O)[nH]c(NCc3cc(-c4ccccc4)nn3C)nc12` [Example 66, 1-methyl-5-((1-methyl-3-phenyl-1H-pyrazol-5-yl)methylamino)-3-propyl-1H-pyrazolo[4,3-d]pyrimidin-7(6H)-one], the pIC50 was greater than 7.00. `CCCc1nn(C)c2c(=O)[nH]c(N(C)Cc3ccc(Cl)cc3)nc12` [Example 17, 5-((4-chlorobenzyl)(methyl)amino)-1-methyl-3-propyl-1H-pyrazolo[4,3-d]pyrimidin-7(6H)-one] showed a pIC50 greater than 7.00. Work on `CCCN(CCC)c1nc2c(C(C)(C)C)nn(C)c2c(=O)[nH]1` [Example 89, 3-tert-butyl-5-(dipropylamino)-1-methyl-1H-pyrazolo[4,3-d]pyrimidin-7(6H)-one] yielded a pIC50 greater than 7.00. In the case of `CCCc1nn(C)c2c(=O)[nH]c(N(C)Cc3csc(-c4ccc(C(F)(F)F)cc4)n3)nc12` [Example 39, 1-methyl-5-(methyl((2-(4-(trifluoromethyl)phenyl)thiazol-4-yl)methyl)amino)-3-propyl-1H-pyrazolo[4,3-d]pyrimidin-7(6H)-one], the pIC50 was 6.30 to 7.00. Compound `CCCc1nn(C)c2c(=O)[nH]c(N(C)Cc3ccc(N4CCCCC4)cc3)nc12` [Example 3, 1-methyl-5-(methyl(4-(piperidin-1-yl)benzyl)amino)-3-propyl-1H-pyrazolo[4,3-d]pyrimidin-7(6H)-one] has a pIC50 of 6.30 to 7.00.
